This data set can be described thus: intrinsic solubility (aqueous medium/lower pH). The data set is classed as physicochemical.

Regarding `Cc1cccc(Nc2ccccc2C(=O)O)c1C` [mefanamic acid], the intrinsic solubility turned out to be 0.0423 µg/mL.

Source of the values: patent US20150057266A1 (AbbVie Inc., priority 2005, published 2015).
